US9895362B2, “Pharmaceutical composition combining an anticonvulsant and a derivate of nicotinic acid” (Farmacéuticos Rayere, S.A., priority 2014, dated 2018)

How the values were obtained:
[1] = test system: mechanical allodynia (diabetic neuropathy induced with streptozotocin); assay: Model of pain due to diabetic neuropathy induced with streptozotocin; mechanical allodynia by Von Frey filaments assay; isobolographic analysis; type: in vivo, male BALB/c mice; settings: for DE30 (effective dose that provides an analgesic effect of 30%): drugs administered individually, antiallodynic effect from AUC at 4 hours post-treatment; for dose-antiallodynic effect curve: gabapentin 50, 100, 150 mg/kg, lysine clonixinate 75, 150, 300 mg/kg, individually
Description: In this example, a model of neuropathic pain induced by streptozotocin in male BALB/c mice 6-8 weeks of age is used. The procedure used was based on one described and widely validated (Ahlgren, S. C. and Levine, J. D., 1993), which consists in an intraperitoneal injection of streptozotocin (45 mg/kg) in 0.2 mL of saline solution. […] The blood glucose levels were evaluated in 4 groups of mice with the following characteristics: 1) without treatment (basal), 2) with treatment in fasting, 3) after 1 day of treatment and 4) after 4 days of treatment. As a diabetes parameter, a plasma glucose level≧200 mg/dL was taken.
Allodynia was determined by mechanical stimulation through progressively […] application of different forces with Von Frey filaments of different caliber. The mice were placed in plastic cylinders on a wire mesh table for 15 minutes, ensuring that they were calm, and subsequently the filaments were progressively applied to the side of the leg. The filament of 0.02 g of force was the first to be applied to the left leg, five times during a total period of 30 seconds (approximately 2 seconds per stimulus), the reaction of the mouse being determined after each application. The response observed is the withdrawal or licking of the leg. If three of the five stimuli are observed, the reaction is considered positive and the mechanical threshold of the response is established.
Different groups were used to characterize the dose-response curve of the analgesics, administering the drugs after inducing of diabetes. The doses for gabapentin were 50, 100 and 150 mg/kg, and for lysine clonixinate they were 75, 150 and 300 mg/kg. Groups of animals were used with n≧8. A 0.9% saline solution was administered by intraperitoneal route as a control of each experimental group.
For determination of antiallodynic efficacy, the mean threshold in each group was plotted as a function of time after the administration of the drugs individually or in combination, and the area below the curve (ABC) was obtained using the trapezoid rule. The percentage increase of the threshold was calculated using the following equation: […]
To evaluate the net antiallodynic effect, the area under the curve of the time courses evaluated at 4 hours post-treatment was obtained.
To evaluate the effect of the CLG combination in relation to the effect of each drug individually, isobolographic analysis was used. […] From the respective DE30 of the individual drugs, combinations of gabapentin and CL in fixed proportions were made and evaluated.
Subsequently, a dose-response curve was plotted after coadministration of the two drugs. […] The data represent the mean and the standard error of 8 mice.
Once the DE30 values, both the theoretical and experimental, were obtained, a statistical comparison of the additive theoretical point and the experimental DE30 value was done using a Student's t-test. The type of interaction between the two drugs was established by constructing an isobologram as follows. For each of the individual agents, the dose that produces 30% of antiallodynic effect (DE30) was plotted in rectangular coordinates (x, y). The line that connects these two points is termed “isobolic” or the “additivity line,” and on this line are all the possible combinations of the two drugs that produce only an additivity or summation effect.
To describe the magnitude of the interaction, the interaction index value (γ), which is a quantitative measure of the interaction between two drugs, was calculated: […]

[2] = test system: mechanical allodynia (injury of the sciatic nerve); assay: Experimental model of neuropathic pain due to injury (ligation and cutting) of the sciatic nerve; mechanical allodynia by Von Frey filaments assay; isobolographic analysis; type: in vivo, mice; settings: for DE30: drugs administered individually, intraperitoneal, linear regression, AUC at 4 hours; for dose dependence of antiallodynic effect: intraperitoneal administration
Description: To evaluate the analgesic efficacy of the CLG combination in neuropathic pain due to injury to the nerve, an experimental model of neuropathic pain due to ligation and cutting of sciatic nerve in mice was used. The procedure used was based on that described by I. Decosterd and C. J. Woolf (2000), which consists of isolating, tying and injuring the sciatic nerve of the mouse, followed by evaluation of the mechanical allodynia resulting from damage to the nerve.
The surgery consisted of making an incision of approximately 1 cm in the direction proximal longitudinal to the knee and afterwards opening the skin by blunt dissection and separating the muscular layer by dissection lateral to the blood vessel near the femur. Then the right sciatic nerve was exposed under the muscles, separating them with care to display the sciatic nerve in the region where it branches from the sural nerve. Only the sciatic nerve was sutured with No. 6 thread, trying not to damage the sural nerve in any way. A tight surgical knot was made on the sciatic nerve by cutting below the suture with a pair of tweezers, then stitching the muscle layer and the skin by surgical knots. […] Consequently, the antiallodynic effect of the drugs is evaluated from the second or third day after the surgery. For validation of the model, as a surgery control group, a sham surgery was used, in which the sciatic nerve is only exposed surgically, without ligation or cutting, and then the muscle tissue and skin is stitched.
In all groups, the evaluation of mechanical allodynia with the application of Von Frey filaments was done in the same manner as described above for the model of pain due to diabetic neuropathy. The response thresholds in both legs, ipsilateral (right) and contralateral (left), were evaluated.
For systemic administration of the drugs individually and in combinations in the mechanical allodynia model, different groups were used to characterize the dose-response curve by administering the drugs on the third day after the surgery. The doses for gabapentin were 50, 100 and 150 mg/kg, and for lysine clonixinate they were 75, 150 and 300 mg/kg. Afterwards, as described below, other groups were administered different doses of the CLG combination. Both gabapentin and lysine clonixinate and their combinations were dissolved in a 0.9% saline solution. Groups of animals were used with an experimental n of 6 to 8. A 0.9% saline solution was administered by intraperitoneal route to an experimental control group.
To evaluate the net antiallodynic effect, the area under the curve of the time courses evaluated at 4 hours post treatment, both of the ipsilateral and the contralateral leg, was obtained using the trapezoid rule. […] FIG. 10 represents the dose-antiallodynic effect curves, corresponding to gabapentin and lysine clonixinate administered individually. By means of linear regression, the DE30 values of the drugs administered individually were obtained.
In the same way as was done in the previous model, isobolographic analysis was used to evaluate the effect of the CLG combination in relation to the effect of each drug individually. From the respective DE30 of the individual drugs, combinations of gabapentin and CL in fixed proportions were evaluated.

[3] = test system: neurological profile (behavior, reflexes, convulsions, motor coordination); assay: Neurological profile after subchronic administration (14 days); type: in vivo, mice; settings: for value of all the parameters of the neurological profile: 14 days of treatment, at these doses; for Behavior: Exploratory Activity / Behavior: Flabbiness / Behavior: Irritability / Behavior: State of Alert / Behavior: Straightening of Tail / Behavior: Vocalization / Convulsions: Clonic / Convulsions: Gait Movements / Convulsions: Jumping Movement / Convulsions: Tonic / Motor Coordination: Abnormal Gait / Motor Coordination: Paralysis / Motor Coordination: Running in Circles / Motor Coordination: Staggering Gait / Reflexes: Corneal: i.p. daily 14 days, gabapentin 31 mg/kg, lysine clonixinate 150 mg/kg, or both
Description: The motor activity and biochemical profile evaluation data were evaluated by an analysis of variance (ANOVA), followed by a Dunnett test. The neurological profile data were evaluated by grading, with 0=null, […] and 3=significant. […] This administration was done consecutively every 24 hours. After 14 days of exposure, toxicological tests were done. A daily evaluation was simultaneously done of the neurological profile, since one critical aspect in all experimental models of nervous system pathologies is evaluation of the final neurological prognosis. In the case of subchronic administration of medication, evaluation of the final functional deficit is a valuable tool. Therefore, after receiving a daily dose for 14 days, the mice underwent an evaluation of the neurological profile of the experimental animals. This evaluation included parameters such as behavior, reflexes, convulsions and motor coordination. Each parameter was graded on a scale of 0=null, 1=slight, 2=moderate and 3=considerable.

[4] = patients treated with gabapentin; cited from earlier work
neuropathic pain = assay: Overall conclusions from both mouse models of neuropathic pain; type: in vivo, mice; settings: lysine clonixinate alone, in the studies performed
Description: In the present study, we used two mouse models to study neuropathic pain: the model of diabetic neuropathy induced by streptozotocin and the model of neuropathic pain induced by a physical injury to the sciatic nerve.

Row | SMILES | DE30 (effective dose that provides an analgesic effect of 30%) ([1]; diabetic neuropathy model) [mg/kg] | dose-antiallodynic effect curve [1] | DE30 [2] [mg/kg] | dose dependence of antiallodynic effect [2] | value of all the parameters of the neurological profile [3] | Behavior: Exploratory Activity [3] | Behavior: Flabbiness [3] | Behavior: Irritability [3] | Behavior: State of Alert [3] | Behavior: Straightening of Tail [3] | Behavior: Vocalization [3] | Convulsions: Clonic [3] | Convulsions: Gait Movements [3] | Convulsions: Jumping Movement [3] | Convulsions: Tonic [3] | Motor Coordination: Abnormal Gait [3] | Motor Coordination: Paralysis [3] | Motor Coordination: Running in Circles [3] | Motor Coordination: Staggering Gait [3] | Reflexes: Corneal [3] | other results
1 | NCC1(CC(=O)O)CCCCC1 [gabapentin, 2-[1-(aminomethyl)cyclohexyl] acetic acid] | 39.62 ± 1.35 | dose-dependent increase | 83.82 | dose dependent increase | 0 | 0 | 0 | 0 | 0 | 0 | 0 | 0 | 0 | 0 | 0 | 0 | 0 | 0 | 0 | 0 | DE30 (effective dose that provides an analgesic effect of 30%) ([1]; diabetic neuropathy model, listed as Gabapentin): 39.62 mg/kg; patients showing drowsiness, dizziness, ataxia, headache and fatigue [4]: more than 10%
2 | Cc1c(Cl)cccc1Nc1ncccc1C(=O)O.NCCCC[C@H](N)C(=O)O [lysine clonixinate, lysine salt of 2-[(3-chloro-2-methylphenyl)amino]-3-pryridinecarboxylic acid] | 150.41 ± 25.49 | dose-dependent increase | 579.67 | dose dependent increase | 0 | 0 | 0 | 0 | 0 | 0 | 0 | 0 | 0 | 0 | 0 | 0 | 0 | 0 | 0 | 0 | antiallodynic effect (in words) ([1]; administered individually, diabetic neuropathy model): moderate antiallodynic effect; DE30 (effective dose that provides an analgesic effect of 30%) ([1]; diabetic neuropathy model, listed as Lysine Clonixinate): 150.41 mg/kg; antiallodynic effect (in words) ([2]; administered individually): moderate antiallodynic effect; effect on neuropathic pain (maximum found) (neuropathic pain): up to 30%
